In PubChem BioAssay AID1918939 (Molecular Pharmacology Branch, DTP, NCI, 2023):
pIC50: −log10 of the molar value.

Tested on: 653999-131-R-J2-PDC complex spheroid viability
Experiment: Anticancer human tumor 653999-131-R-J2-PDC patient-derived lung adenocarcinoma cell line growth inhibition
Conditions: for pIC50: curve of first compound; for viability, T/C: stronger effect = lower value
In short: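 Complex spheroids of tumor cells with HUVEC and human MSCs, exposed to iadademstat combined with other agents. Each agent tested in half-log steps from near clinical Cmax (else 10 microM top), DMSO ≤0.25%.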

[1] = second compound 0.1 µM, first compound 0.0316 µM
[2] = second compound 0.1 µM, first compound 0.1 µM
[3] = second compound 0.1 µM, first compound 0.316 µM
[4] = second compound 0.1 µM, first compound 1 µM
[5] = second compound 0.1 µM, first compound 3.16 µM
[6] = second compound 0.1 µM, first compound 10 µM
[7] = second compound 0.316 µM, first compound 0.0316 µM
[8] = second compound 0.316 µM, first compound 0.1 µM
[9] = second compound 0.316 µM, first compound 0.316 µM
[10] = second compound 0.316 µM, first compound 1 µM
[11] = second compound 0.316 µM, first compound 3.16 µM
[12] = second compound 0.316 µM, first compound 10 µM
[13] = second compound 1 µM, first compound 0.0316 µM
[14] = second compound 1 µM, first compound 0.1 µM
[15] = second compound 1 µM, first compound 0.316 µM
[16] = second compound 1 µM, first compound 1 µM
[17] = second compound 1 µM, first compound 3.16 µM
[18] = second compound 1 µM, first compound 10 µM
[19] = second compound 3.16 µM, first compound 0.0316 µM
[20] = second compound 3.16 µM, first compound 0.1 µM
[21] = second compound 3.16 µM, first compound 0.316 µM
[22] = second compound 3.16 µM, first compound 1 µM
[23] = second compound 3.16 µM, first compound 3.16 µM
[24] = second compound 3.16 µM, first compound 10 µM
[25] = second compound 10 µM, first compound 0.0316 µM
[26] = second compound 10 µM, first compound 0.1 µM
[27] = second compound 10 µM, first compound 0.316 µM
[28] = second compound 10 µM, first compound 1 µM
[29] = second compound 10 µM, first compound 3.16 µM
[30] = second compound 10 µM, first compound 10 µM
[31] = second compound 0.1 µM, first compound 0.00316 µM
[32] = second compound 0.1 µM, first compound 0.01 µM
[33] = second compound 0.316 µM, first compound 0.00316 µM
[34] = second compound 0.316 µM, first compound 0.01 µM
[35] = second compound 1 µM, first compound 0.00316 µM
[36] = second compound 1 µM, first compound 0.01 µM
[37] = second compound 3.16 µM, first compound 0.00316 µM
[38] = second compound 3.16 µM, first compound 0.01 µM
[39] = second compound 10 µM, first compound 0.00316 µM
[40] = second compound 10 µM, first compound 0.01 µM
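Note: spheroids exposed to agents for seven days before readout.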

Row | Structure (SMILES) | pIC50 (second compound 0.1 µM) | pIC50 (second compound 0.316 µM) | pIC50 (second compound 1 µM) | pIC50 (second compound 3.16 µM) | pIC50 (second compound 10 µM) | viability, T/C [1] | viability, T/C [2] | viability, T/C [3] | viability, T/C [4] | viability, T/C [7] | viability, T/C [8] | viability, T/C [9] | viability, T/C [10] | viability, T/C [13] | viability, T/C [14] | viability, T/C [15] | viability, T/C [16] | viability, T/C [19] | viability, T/C [20] | viability, T/C [21] | other results
1 | CC(C)c1c(-c2ccccc2)nc2c(C#N)c[nH]n2c1=O + NC1CCC(NC2CC2c2ccccc2)CC1 | < 5.00 | < 5.00 | < 5.00 | < 5.00 | < 5.00 | 92.5% | 97.8% | 91.4% | 80.6% | 94.5% | 89.6% | 100% | 82.3% | 94.2% | 105% | 92.8% | 84.9% | 85.9% | 103% | 84.6% | viability, T/C [5]: 91.8%; viability, T/C [6]: 91.5%; viability, T/C [11]: 85.5%; viability, T/C [12]: 77.5%; viability, T/C [17]: 87.2%; viability, T/C [18]: 85.1%; viability, T/C [22]: 95.1%; viability, T/C [23]: 89%; viability, T/C [24]: 80%; viability, T/C [25]: 91.9%; viability, T/C [26]: 88.1%; viability, T/C [27]: 82.6%; viability, T/C [28]: 78.1%; viability, T/C [29]: 75.5%; viability, T/C [30]: 69.4%
2 | CC1COCCN1c1cc(-c2ccnn2C)c2ccnc(-c3ccn[nH]3)c2n1 (stereo not given) + NC1CCC(NC2CC2c2ccccc2)CC1 | 7.64 | 7.66 | 7.45 | 7.61 | 7.50 | 42.8% | 33% | 32.3% | 27.1% | 48.1% | 32.3% | 28.1% | 27.7% | 52% | 35.9% | 33.9% | 27.9% | 44.8% | 37.3% | 31.1% | viability, T/C [31]: 85.9%; viability, T/C [32]: 67.7%; viability, T/C [33]: 79.6%; viability, T/C [34]: 59%; viability, T/C [35]: 78.1%; viability, T/C [36]: 67.7%; viability, T/C [37]: 92.2%; viability, T/C [38]: 64.1%; viability, T/C [22]: 27.8%; viability, T/C [39]: 84.4%; viability, T/C [40]: 68.1%; viability, T/C [25]: 50.9%; viability, T/C [26]: 36.5%; viability, T/C [27]: 33.5%; viability, T/C [28]: 30.1%
3 | COc1ccc([C@@H](O)c2cc(-c3ncnc4cc(N5CCOCC5)ccc34)c(F)cc2Cl)nn1 + NC1CCC(NC2CC2c2ccccc2)CC1 | 5.74 | 5.76 | 5.59 | 5.65 | 5.76 | 97.4% | 94.9% | 68.8% | 61.5% | 106% | 85.3% | 74.7% | 60.8% | 96.5% | 98% | 76.6% | 68.5% | 84.2% | 114% | 78.1% | viability, T/C [5]: 42%; viability, T/C [6]: 30.9%; viability, T/C [11]: 39%; viability, T/C [12]: 28.1%; viability, T/C [17]: 45.7%; viability, T/C [18]: 29.4%; viability, T/C [22]: 65.2%; viability, T/C [23]: 46.4%; viability, T/C [24]: 31.5%; viability, T/C [25]: 108%; viability, T/C [26]: 98%; viability, T/C [27]: 72%; viability, T/C [28]: 57%; viability, T/C [29]: 44.6%; viability, T/C [30]: 29.4%
4 | O=C(C=Cn1cnc(-c2cc(C(F)(F)F)cc(C(F)(F)F)c2)n1)NNc1cnccn1 + NC1CCC(NC2CC2c2ccccc2)CC1 | 8.31 | 8.09 | 7.90 | 7.95 | 8.01 | 35.8% | 30.6% | 31.8% | 19.6% | 40.9% | 34.6% | 29.4% | 26.2% | 48% | 34.6% | 30.6% | 22.4% | 42.7% | 35.4% | 29.1% | viability, T/C [31]: 53.1%; viability, T/C [32]: 46.5%; viability, T/C [33]: 57.2%; viability, T/C [34]: 48.7%; viability, T/C [35]: 53.6%; viability, T/C [36]: 50.1%; viability, T/C [37]: 64%; viability, T/C [38]: 46.3%; viability, T/C [22]: 21.9%; viability, T/C [39]: 60.4%; viability, T/C [40]: 45.5%; viability, T/C [25]: 41%; viability, T/C [26]: 40.6%; viability, T/C [27]: 32.5%; viability, T/C [28]: 24.2%
